Experimental data taken from patent US20120122848A1, “(+)-3-HYDROXYMORPHINAN DERIVATIVES AS NEUROPROTECTANTS” (GREEN CROSS CORPORATION, priority 2009, published 2012).
Structures can show the parent of a compound that is named as a salt.

Assays:
[1] = Total antioxidant activity assay (TEAC; metmyoglobin, 2,2′-azinobis(3-ethylbenzoline 6-sulfonate), H2O2); details: for EC50: 7.5 min at 30° C., absorbance at 734 nm
Description: Briefly, 1 ml of reaction mixture including 2.5 μM metmyoglobin, 150 μM 2,2′-azinobis(3-ethylbenzoline 6-sulfonate), 75 μM H2O2, and 0.84% sample or Trolox (for standard) in PBS was incubated for 7.5 min at 30° C.; then the absorbance at 734 nm was measured. The data are normalized to 1 mM Trolox (TEAC activity) [Kumiko I. et al., The Activation of Dopamine D4 Receptors Inhibits Oxidative Stress-Induced Nerve Cell Death., J. Neurosci., 2001]. The EC50 values were analyzed statistically using Prizm® (GraphPad Software Inc., San Diego, Calif., USA).

SirT1 [2] = test: Western blotting analysis of SirT1 in glutamate-treated HT22 cells; type: cell-based, mouse; details: 10 mM glutamate, 18 hrs
Description: HT22 cells (1.5×10^7) plated in a 100 mm dish were treated with 10 mM glutamate in the absence or presence of 3-HM.HBr or the compound of Example 26, and incubated for 18 hrs. The cells were collected by scraping in a sample buffer (3% SDS, 1% glycerol, 0.5% 2-mercaptoethanol, 0.05% bromophenol blue, and 80 mM Tris-HCl buffer, pH 6.8, with complete protease inhibitors). The resulting suspention was centrifuged and the pellets thus obtained were re-suspended in the sample buffer. The samples were heated for 3 min in boiling water, fractionated on 4-20% polyacrylamide gels, and electroblotted onto membranes. SirT1 affinity purified polyclonal antibody was used as the primary antibody. Immunoreactive bands were detected with the ECL (Amersham Pharmacia Biotech, Arlington Heights, Ill.) Western blotting detection reagents [Kumiko, I. et al., The Activation of Dopamine D4 Receptors Inhibits Oxidative Stress-Induced Nerve Cell Death., J. Neurosci., 2001, 21(16):6069-6076]. […]

HT22 cells = test: ROS measurement using DCFDA in glutamate-treated HT22 cells; type: cell-based; details: Mus musculus, HT-22, 5 mM glutamate, 8 hrs
Description: HT22 cells (1×10^4) plated in a 96-well plate were treated with 5 mM glutamate in the absence or presence of 3-HM.HBr or the compound of Example 26, and incubated for 8 hrs. After washing with PBS, cells were stained with 10 μM 2,7-dichlorodihydrofluorescein diacetate (DCFDA) in HBSS (Hank's balanced salt solution, Gibco) for 30 min in the dark. Then the cells were washed with PBS twice and extracted with 1% Triton X-100 in PBS for 10 min at 37° C. Fluorescence was recorded with the excitation wavelength of 490 nm and the emission wavelength of 525 nm (Infinite M200, TECAN) [Da-Qing, et. al., Anti-oxidant and anti-inflammatory activities of macelignan in murine hippocampal cell line and primary culture of rat microglia cells, BBRC, 2005, 331, 1264-1269]. The EC50 values were analyzed statistically using Prizm® (GraphPad Software Inc., San Diego, Calif., USA).

[3] = Cell cytotoxicity test: protection of HT22 cells against glutamate toxicity (EC50) and cytotoxicity of the compounds (CC50), MTT; type: cell-based, mouse; details: mouse, HT22 cells (mouse hippocampal neuron)
How it was run: (§1)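 Cells plated 16 hrs, then exposed to 5 mM glutamate plus a compound concentration series for 24 hrs in DMEM with 10% FBS. Viability by MTT (4 hrs), absorbance at 450 nm; EC50 is protection against glutamate toxicity, CC50 is compound cytotoxicity.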

[4] = system: HT22 cells (mouse hippocampal neuron); test: as above; type: cell-based; details: Mus musculus, HT-22, five millimolar glutamate, 24 hrs, read-out: EC50 (neuroprotective effect against glutamate toxicity)
How it was run: as §1

SirT1 [5] = test: RT-PCR analysis of target gene expression under glutamate toxicity in HT22 cells; type: cell-based, mouse; details: 10 mM glutamate, 18 hrs
Description: HT22 cells (1.5×10^7) plated in a 100 mm dish were treated with 10 mM glutamate in the absence or presence of 3-HM.HBr or the compound of Example 26 and incubated for 18 hrs. Oligonucleotide primers used for the PCR amplification were DJ-1 (PARK7), LRRK2 (Leucine-rich repeat kinase 2), PINK1 (PTEN induced putative kinase 1), SirT1 (silent mating type information regulation 2 homolog 1 (S. cerevisiae)), SirT2 (silent mating type information regulation 2 homolog 2 (S. cerevisiae)), and others. PCR products were electrophoresed on 2% agarose gels and detected by ethidium bromide [Kumiko I. et al., The Activation of Dopamine D4 Receptors Inhibits Oxidative Stress-Induced Nerve Cell Death., J. Neurosci., 2001].
FIG. 2A and FIG. 2B show the results of reverse transcription polymerase chain reaction.
In FIG. 2A, Lane 1 is mock, Lane 2 is the group treated with 10 mM Glutamate, and Lane 3 is the group treated with 10 mM Glutamate and 100 uM 3-HM.HBr. […]

[6] = system: dopamine (DA) neurons in substantia nigra pars compacta; details: MPTP model, daily injections; cited from earlier work

| Structure (SMILES) | CC50 at 24 h [3] | EC50 [4] | also measured |
| --- | --- | --- | --- |
| Oc1ccc2c(c1)[C@]13CCCC[C@@H]1[C@H](C2)NCC3 [3-HM•HBr, (+)-3-hydroxymorphinan HBr, reference compound] | > 100000 nM | 31300 nM | inhibition (total antioxidant activity) ([1]; at 100 μM): 22.4%; SirT1 expression (Western blotting) (SirT1 [2]): this decreasing was protected; EC50 (HT22 cells): 38.5 µM; SirT1 expression levels (RT-PCR) (SirT1 [5]): decreased SirT1 expression levels were elevated |
| Oc1ccc2c(c1)[C@]13CCCC[C@@H]1[C@H](C2)NCC3 [(+)-3-HM, (+)-3-Hydroxymorphinan] |  |  | DA levels in striatum [6]: DA levels in striatum has been restored; protection of DA neurons in substantia nigra pars compacta [6]: dopamine (DA) neurons in substantia nigra pars compacta have been protected |
| Oc1ccc(Nc2cc3c(cc2O)[C@]24CCCC[C@@H]2[C@H](C3)NCC4)cc1 [Example 26, (+)-3-Hydroxy-2-(4-hydroxyphenylamino)morphinan TFA salt] | 2310 nM | 4.59 nM | EC50 [1]: 32.4 µM; SirT1 expression (Western blotting) (SirT1 [2]): this decreasing was protected; EC50 (HT22 cells): 3.11 µM; SirT1 expression levels (RT-PCR) (SirT1 [5]): decreased SirT1 expression levels were elevated |
| Oc1cc2c(cc1Nc1ccccc1N1CCCCC1)C[C@@H]1NCC[C@]23CCCC[C@H]13 [Example 128, (+)-3-Hydroxy-2-(2-(piperidin-1-yl)phenylamino)morphinan TFA salt] | 1600 nM | 35.6 nM |  |
| CCN(CC)c1ccccc1Nc1cc2c(cc1O)[C@]13CCCC[C@@H]1[C@H](C2)NCC3 [Example 129, (+)-2-(2-(Diethylamino)phenylamino)-3-hydroxymorphinan TFA salt] | 1600 nM | 43.9 nM |  |
| CCNc1ccccc1Nc1cc2c(cc1O)[C@]13CCCC[C@@H]1[C@H](C2)NCC3 [Example 130, (+)-2-(2-(Ethylamino)phenylamino)-3-hydroxymorphinan TFA salt] | 1600 nM | 11.2 nM |  |
| CCN(C)c1ccccc1Nc1cc2c(cc1O)[C@]13CCCC[C@@H]1[C@H](C2)NCC3 [Example 131, (+)-2-(2-(Ethyl(methyl)amino)phenylamino)-3-hydroxymorphinan TFA salt] | 1500 nM | 17.7 nM |  |
| CS(=O)(=O)Nc1ccccc1Nc1c(O)cc2c(c1Br)C[C@@H]1NCC[C@]23CCCC[C@H]13 [Example 132, (+)-1-Bromo-3-hydroxy-2-(2-(methanesulfonamido)phenylamino)morphinan TFA salt] | 10600 nM | 237 nM |  |
| CS(=O)(=O)Nc1ccccc1Nc1c(O)cc2c(c1Cl)C[C@@H]1NCC[C@]23CCCC[C@H]13 [Example 133, (+)-1-Chloro-3-hydroxy-2-(2-(methanesulfonamido)phenylamino)morphinan TFA salt] | 16500 nM | 256 nM |  |
| Cc1c2c(cc(O)c1Nc1ccccc1NS(C)(=O)=O)[C@]13CCCC[C@@H]1[C@H](C2)NCC3 [Example 134, (+)-3-Hydroxy-2-(2-(methanesulfonamido)phenylamino)-1-methylmorphinan TFA salt] | 53200 nM | 153 nM |  |
| Cc1c(C)c2c(c(C)c1O)CCC(C)(C(=O)O)O2 (centres unmarked) [Trolox] |  |  | EC50 [1]: 47.5 µM |
